Assay results reported in ChEMBL document CHEMBL1123887, “Fluoro ketone containing peptides as inhibitors of human renin” (J Med Chem, 1987).
Numbered stars: 1 amine (or outer) side, 2 acyl side, 3 side chain; on linkers, the order of the positions; unused ones are H or OH. Square brackets hold non-standard residues; d marks the D form. Peptide text beside a SMILES is read from it. * marks the point of attachment. X2 = CC(C)C[C@H](N[*:1])[C@@H](O)C(F)(F)C(=O)[*:2]; X1 = CC(C)C[C@H](N[*:1])C(=O)C(F)(F)C(=O)[*:2]; X3 = CC(C)C[C@H](N[*:1])C(=O)CC(=O)[*:2]; Sta = CC(C)C[C@H](N)[C@@H](O)CC(=O)O; Boc = CC(C)(C)OC(=O)*

Biological target: T1, Renin (Homo sapiens, UniProt P00797)
T1 sequence (P00797 whole entry): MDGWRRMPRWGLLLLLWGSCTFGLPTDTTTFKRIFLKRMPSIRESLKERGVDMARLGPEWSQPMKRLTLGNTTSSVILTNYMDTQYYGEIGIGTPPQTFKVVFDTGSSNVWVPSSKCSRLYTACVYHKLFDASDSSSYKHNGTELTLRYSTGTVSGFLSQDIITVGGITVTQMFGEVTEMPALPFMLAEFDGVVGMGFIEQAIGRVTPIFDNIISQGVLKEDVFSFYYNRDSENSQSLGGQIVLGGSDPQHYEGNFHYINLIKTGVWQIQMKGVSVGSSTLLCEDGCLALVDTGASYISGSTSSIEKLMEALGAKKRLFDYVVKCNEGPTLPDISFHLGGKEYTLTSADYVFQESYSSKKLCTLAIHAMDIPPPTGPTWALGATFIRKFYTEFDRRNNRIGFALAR
Assay: Compound was evaluated for inhibitory activity against human kidney renin
Type: tissue-based

SMILES	Ki [nM]
CC(C)C[C@H](NC(=O)C[C@H](O)[C@H](CC(C)C)NC(=O)[C@H](Cc1ccccc1)NC(=O)[C@H](Cc1ccccc1)NC(=O)OC(C)(C)C)C(=O)N[C@@H](Cc1ccccc1)C(N)=O (Boc-FF[Sta]LF-NH2)	52
COC(=O)[C@@H](/C=C/[C@H](CC(C)C)NC(=O)C(F)(F)C(=O)[C@H](CC(C)C)NC(=O)[C@H](Cc1ccccc1)NC(=O)[C@H](Cc1ccccc1)NC(=O)OC(C)(C)C)Cc1ccccc1	1200
CC(C)C[C@H](NC(=O)C(F)(F)C(=O)[C@H](CC(C)C)NC(=O)[C@H](Cc1ccccc1)NC(=O)[C@H](Cc1ccccc1)NC(=O)OC(C)(C)C)C(=O)N[C@@H](Cc1ccccc1)C(N)=O (Boc-FF[X1]LF-NH2)	7
COC(=O)[C@@H](/C=C/[C@H](CC(C)C)NC(=O)C(F)(F)[C@H](O)[C@H](CC(C)C)NC(=O)[C@H](Cc1ccccc1)NC(=O)[C@H](Cc1ccccc1)NC(=O)OC(C)(C)C)Cc1ccccc1	16000
CC(C)C[C@H](NC(=O)C(F)(F)[C@H](O)[C@H](CC(C)C)NC(=O)[C@@H](/C=C/[C@H](Cc1ccccc1)NC(=O)OC(C)(C)C)Cc1ccccc1)C(=O)N[C@@H](Cc1ccccc1)C(N)=O	12000
CC(C)C[C@H](NC(=O)C(F)(F)[C@H](O)[C@H](CC(C)C)NC(=O)[C@H](Cc1ccccc1)NC(=O)[C@H](Cc1ccccc1)NC(=O)OC(C)(C)C)C(=O)N[C@@H](Cc1ccccc1)C(N)=O (Boc-FF[X2]LF-NH2)	120
CC(C)C[C@H](NC(=O)[C@H](Cc1ccccc1)NC(=O)[C@H](Cc1ccccc1)NC(=O)OC(C)(C)C)C(=O)CC(=O)N[C@@H](CC(C)C)C(=O)N[C@@H](Cc1ccccc1)C(N)=O (Boc-FF[X3]LF-NH2)	154
